In patent EP4345091A1, “BENZOIC ACID DERIVATIVES, METHODS AND USES THEREOF” (priority 2022, dated 2024):
In brackets after ≈: the same amount, converted by molar mass. Where two headings read alike, the source gives them in different places.

What was measured:
[1] = system: Mycobacterium tuberculosis H37Rv; assay: MIC and MBC by broth microdilution against M. tuberculosis H37Rv; assay type: cell-based, Mycobacterium tuberculosis H37Rv (ATCC 27294); conditions: Mycobacterium tuberculosis, H37RV, M. tuberculosis H37Rv; for MBC: Table 3; for MIC: Tables 3, 6 and 7
[2] = Chemical stability in phosphate buffer pH 7.4
Experimental: (§3) Chemical hydrolysis was evaluated in phosphate buffer at physiological pH (7.4) to determine its influence in enzymatic studies.
(§4) 1176 µL pH 7.4 phosphate buffer or pH 5.9 phosphate buffer, 18 µL ACN and 6 µL of a 10-1 M stock solution of the prodrug in ACN were mixed in a 2mL vial. The solution was incubated at 37 °C and 50 µL aliquots were removed, mixed with 450 µL of ACN: H2O 1:1. The solution was analysed by HPLC, the remaining substrate and the correspondent acid were both measured.
(§5) The eluant was a mixture of acetonitrile (60%/70%) and aqueous phosphate buffer with 5% of KH2PO4/H3PO4 0.025M (40%/30%). The flow rate was always 1 mL/1 min and wavelength was set at 230 nm. All quantifications were evaluated using calibration curves from stock solutions.
(§6) The initial substrate concentration was 5 x 10^-4 M in all stability assays. All incubations were carried out at pH 7.4 and 37 °C under agitation using the phosphate buffer described above as diluting agent. […] Acetonitrile (2%) was used in all studies to ensure adequate solubilization of the substrates.

[3] = Stability in human plasma (enzymatic hydrolysis)
Experimental: The studies of stability in human plasma were performed in human plasma diluted to 80% with phosphate buffer pH 7.4 of total concentration 0.05 M and ionic strength 0.15 M at 37°C. […] Study of enzymatic hydrolysis. […] Initial substrate concentration (ester) - 5×10^-4M with 2% ACN.
Pooled human plasma (960 µL), pH 7.4 phosphate buffered saline (216 µL), 18 µL ACN and 6 µL of a 10-1 M stock solution of the prodrug in ACN were mixed in a 2mL vial. The suspensions were incubated at 37 °C and 50 µL aliquots were removed, mixed with 450 µL of ACN: ZnSO4 1% 1:1 and centrifuged. The supernatant was removed and analysed by HPLC, the remaining substrate and the correspondent acid measured.
Two HPLC systems were used. The buffer and plasma stability studies were performed in an HPLC system with a photodiode detector L-3000 Photo Diode Array Detector, Merck-Hitachi L-6000 pump, Merck-Hitachi D-2500 integrator, and Merck RP-8 column. […] The eluant was a mixture of acetonitrile (60%/70%) and aqueous phosphate buffer with 5% of KH2PO4/H3PO4 0.025M (40%/30%). The flow rate was always 1 mL/1 min and wavelength was set at 230 nm. All quantifications were evaluated using calibration curves from stock solutions.
The initial substrate concentration was 5 x 10^-4 M in all stability assays. All incubations were carried out at pH 7.4 and 37 °C under agitation using the phosphate buffer described above as diluting agent. […] Acetonitrile (2%) was used in all studies to ensure adequate solubilization of the substrates. The benzoates were added from 10 to 1M acetonitrile stock solutions. After incubation, aliquots of 50 µL were taken into vials containing 450 µL of a 1:1 solution of 1% zinc sulfate and acetonitrile, mixed in a vortex and centrifuged for 10 min at 15,000 rpm. The supernatant was then injected into the HPLC and analysed for quantification of benzoic acid and remaining benzoate. All quantifications were performed using calibration curves.

[4] = Stability in Mycobacterium smegmatis homogenate (enzymatic hydrolysis); conditions: pH 7.4; for half-life: Mycobacterium smegmatis; for half-life at 500 µM: mycobacterium smegmatis homogenate
[5] = system: Mycobacterium smegmatis homogenate; assay: as above; conditions: Mycobacterium smegmatis homogenate, 37°C
[6] = Cytotoxicity assay in THP-1 cells; assay type: cell-based, human; conditions: human, THP-1 cells, lethal concentration for 50% of the cell population, read-out: LC50 (the source's name)
Source text: (§1) Cytotoxicity results were obtained through lethal concentration for 50% of the cell population, LC50. Table 6. Results obtained from cytotoxicity assays for the esters, represented by LD50 in µg/mL and comparison with MIC values, in µg/mL with toxicity/activity (T/A) index.
(§2) The T/A index quantitatively is the ratio between the lethal concentration (LC50) given by the minimum inhibitory concentration (MIC).

[7] = system: human monocytic cell line THP-1 (ATCC56 TIB202); assay: Cytotoxicity assay in THP-1 cells; assay type: cell-based; conditions: toxicity/activity index: ratio LC50 (THP-1) / MIC (M. tuberculosis H37Rv)
Source text: as §1, §2

[8] = pH 7.4
Experimental: as §3, §4, §5, §6

| Compound | MBC ([1]; read-out: MBC) [µg/mL] | MIC ([1]; read-out: MIC) [µg/mL] | Degradation (%) 24h [2] [%] | Degradation (%) 48h [2] [%] | Degradation (%) 72h [2] [%] | Degradation (%) 168h [2] [%] | Degradation (%) 332h [2] [%] | Degradation (%) 24h [3] [%] | Degradation (%) 48h [3] [%] | Degradation (%) 72h [3] [%] | half-life [4] [h] | Degradation (%) 24h [5] [%] | Degradation (%) 48h [5] [%] | half-life at 500 µM [4] [h] | MBC [1] [µg/mL] | MIC [1] [µg/mL] | further results |
| --- | --- | --- | --- | --- | --- | --- | --- | --- | --- | --- | --- | --- | --- | --- | --- | --- | --- |
| CCCCOC(=O)c1ccccc1 [Compound 1a, Butyl benzoate] | > 256 | > 256 | 0 | 0 | 0 | 1 | 2 | 100 | 100 | 100 | 0.2 ± 0.01 | 100 | 100 |  |  |  |  |
| CCCCCCOC(=O)c1ccccc1 [Compound 1b, Hexyl benzoate] |  |  |  |  |  |  |  | 94 | 100 | 100 | 0.21 ± 0.01 | 100 | 100 |  |  |  |  |
| CCCCCCCCOC(=O)c1ccccc1 [Compound 1c, Octyl benzoate] | > 256 | 256 (≈ 1090 µM) | 0 | 0 | 0 | 0 | 0 | 45 | 71 | 84 |  | 100 | 100 | 1.96 ± 0.02 |  |  | CC50 [6]: 1650 µg/mL (≈ 7020 µM); T/A [7]: 6 |
| CCCCCCCCCCCCOC(=O)c1ccccc1 [Compound 1e, Dodecyl benzoate] | 512 (≈ 1760 µM) | 256 (≈ 881 µM) | 0 | 0 | 0 | 0 | 0 | 3 | 6 | 9 | 91.4 ± 3.1 | 16 | 30 |  |  |  |  |
| CCCCOC(=O)c1ccc([N+](=O)[O-])cc1 [Compound 2a] |  |  |  |  |  |  |  |  |  |  |  | 99 | 100 | 3.46 ± 0.49 | 128 (≈ 573 µM) | 64 (≈ 287 µM) | Degradation (%) 24h [8]: 0%; Degradation (%) 48h [8]: 1%; Degradation (%) 72h [8]: 1%; Degradation (%) 168h [8]: 2%; Degradation (%) 332h [8]: 4% |
| CCCCCCOC(=O)c1ccc([N+](=O)[O-])cc1 [Compound 2b] |  |  |  |  |  |  |  |  |  |  |  | 77 | 94 | 11.5 ± 0.6 | 128 (≈ 509 µM) | 64 (≈ 255 µM) |  |
| CCCCCCCCOC(=O)c1ccc([N+](=O)[O-])cc1 [Compound 2c, Octyl 4-nitrobenzoate] | 128 (≈ 458 µM) | 8 (≈ 28.6 µM) | 0 | 1 | 1 | 3 | 6 | 100 | 100 | 100 | 39 ± 7.7 | 35 | 58 |  |  |  | CC50 ([6]; THP-1 monocytic cells): 657 µg/mL (≈ 2350 µM); T/A [7]: 82 |
| CCCCCCCCCCCCOC(=O)c1ccc([N+](=O)[O-])cc1 [Compound 2e] |  |  |  |  |  |  |  |  |  |  |  | 19 | 34 | 79.4 ± 4.7 | 64 (≈ 191 µM) | 8 (≈ 23.8 µM) | Degradation (%) 24h [8]: 0%; Degradation (%) 48h [8]: 0%; Degradation (%) 72h [8]: 0%; Degradation (%) 168h [8]: 1%; Degradation (%) 332h [8]: 1% |
